Measured values from patent US7211678B2, “Stable crystals of pyrrole compound” (Nippon Shinyaku Co., Ltd., priority 2001, dated 2007).

Key:
[1] = as described in WO96/40634; cited from earlier work
[2] = Dry grinding test (planet ball mill, evaluated by powder X-ray spectrum); type: physicochemical; conditions: 1 g, 2480 rpm for 5 hours
Description: Type-I crystal (1 g) and type-II crystal (1 g) were respectively charged in a planet ball mill (manufactured by Fritsch Japan) and then grinded at 2480 rpm for 5 hours. The grinded crystals were evaluated by a powder X-ray spectrum.

SMILES | urinary bladder capacity increasing activity [1] | crystal transition after dry grinding [2]
Cc1c(-c2ccccc2F)[nH]c(N)c1C#N [the pyrrole compound, 2-amino-3-cyano-4-methyl-5-(2-fluorophenyl)pyrrole] | excellent urinary bladder capacity increasing activity | 
Cc1c(-c2ccccc2F)[nH]c(N)c1C#N [type-I crystal, 2-amino-3-cyano-4-methyl-5-(2-fluorophenyl)pyrrole] |  | No crystal transition was recognized
Cc1c(-c2ccccc2F)[nH]c(N)c1C#N [type-II crystal, 2-amino-3-cyano-4-methyl-5-(2-fluorophenyl)pyrrole, reference compound] |  | transition of crystals into type-I crystal was recognized
